Assay results as given in patent US9604894B2, “Compounds from antrodia camphorate and their use in treatment of diabetes mellitus” (National Dong Hwa University, priority 2014, dated 2017).
Entries after “also recorded” stand apart in the source; their conditions may differ.

Tests used:
[1] = test system: C57 BL/6 mice; test: Oral glucose tolerance test in S961-induced insulin resistance mice; assay type: in vivo, mouse; details: D-glucose 2 g/kg; for hypoglycemic efficacy, OGTT blood glucose AUC: S961 50 nmol/kg Bwt, enantiomer 50 mg/kg Bwt p.o., FIG. 7(B)
Method: (§1) Animal experiments were approved by the National Dong-Hwa University Animal Ethics Committee and were used according to the “Guide for the Care and Use of Laboratory Animals” of National Dong-Hwa University. C57BL/6 mouse and Imprinting Control Region (ICR) mouse were obtained National Laboratory Animal Center (Taipei, Taiwan) and kept at controlled environmental conditions with room temperature (22±2° C.) and humidity (50±10%). The 12 h light (0600 am-1800 pm) and 12 h dark cycle was maintained throughout the study. Mice had free access to food and water and maintained on a standard laboratory diet (carbohydrates; 60%, proteins; 28%, lipids; 12%, vitamins; 3%).
(§2) Mice were employed to this test after fasting 12 h. Mice were treated with D-glucose by oral gavage (2 g/kg, p.o.). At approximately 0, 30, 60, 90, and 120 min, blood was sampled by venipuncture from the tail vein for the determining blood glucose. Blood glucose was immediately determined by the glucose oxidase method using glucose analyzer (Accu-Chek, Roche).
8 weeks old male C57 BL/6 mice were employed to this test after fasting 12 h. To investigate the effect of natural compounds on the 5961 (insulin receptor antagonist, Novo-Nordisk, Denmark) induced hyperglycemia, mice was intraperitoneally injected (i.p.) S961 (50 nmol/kg Bwt) at 15 min prior to oral gavaged (p.o.) with antroquinonol (dissolved in PEG and EtoH, 50 mg/kg Bwt) and D-glucose (2 g/kg Bwt). At approximately 0, 30, 60, 90, and 120 min, blood was sampled by venipuncture from the tail vein for OGTT test.

[2] = test system: AMPK Thr172 phosphorylation; test: AMPK Thr172 phosphorylation, Western blot in differentiated C2C12 cells; assay type: cell-based, mouse; details: C2C12, 37° C., 30 min; insulin 100 nM, metformin 16 mM, antroquinonol 25 μM; FIG. 3(B)
Method: (§3) FIG. 3(B) provides the results of AMPK Thr172 phosphorylation induced by insulin, metformin (Met) and antroquinonol (Ant); wherein the differentiated C2C12 cells were incubated with 100 nM of insulin, 16 mM of metformin (Met), or 25 μM of antroquinonol (Ant) at 37° C. for 30 min, and then the cell lysates were separated by SDS-PAGE and blotted for phospho-AMPK Thr172; wherein the data were expressed as means with standard errors of mean (mean±SEM), and different letters represent the significant differences (p<0.05) among the various treatments.
Mouse muscle myoblast cells (C2C12) were obtained from the Food Industry Research and Development Institute (FIRDI, Hsinchu, Taiwan). […]
After treatments, the cells were collected and washed twice in cold KRH buffer (containing 50 mM HEPES, 137 mM NaCl, 4.8 mM KCl, 1.85 mM CaCl2, 1.3 mM MgSO4), and then lysed in ice-cold RIPA buffer (containing 50 mM Tris-HCl, pH 8.0, 150 mM NaCl, 5 mM NaF, 1% NP40, 1 mM sodium orthovanadate, 0.5% sodium deoxycholate, 0.1% sodium dodecyl sulphate (SDS), protease inhibitors, and phosphatase inhibitors (DE-68305, Roche, Mannheim, Germany)) and incubated at 4° C. for 60 min. After centrifugation of the cells at 12,000×g at 4° C. for 30 min, the supernatant was kept and quantified by Bradford protein assay (Bio-Rad, Hercules, Calif., USA). […]

[3] = test system: AKT Thr308 phosphorylation; test: AKT Thr308 phosphorylation, Western blot in differentiated C2C12 cells; assay type: cell-based, mouse; details: C2C12, 37° C., 30 min; insulin 100 nM, metformin 16 mM, antroquinonol 25 μM; FIG. 3(A)
Method: as §3, with “3(A)” for “3(B)”, “the AKT Thr308” for “AMPK Thr172”, “phospho-AKT Thr308;” for “phospho-AMPK Thr172;”
Mouse muscle myoblast cells (C2C12) were obtained from the Food Industry Research and Development Institute (FIRDI, Hsinchu, Taiwan). The cells were grown and maintained in Dulbecco's Modified Eagle's Medium containing high level of glucose (DMEM-high glucose; GIBCO, Carlsbad, Calif., USA) supplemented with 10% fetal bovine serum (FBS, GIBCO) and 1% penicillin streptomycin (GIBCO) in a cell culture incubator with 5% CO2 at 37° C. Prior to experiment, the cells were seeded and cultured at a density of 8×10^3 cells per well in 96-well plates or 2.5×10^5 cells per well in 6-well plates. […]
(§4) After treatments, the cells were collected and washed twice in cold KRH buffer (containing 50 mM HEPES, 137 mM NaCl, 4.8 mM KCl, 1.85 mM CaCl2, 1.3 mM MgSO4), and then lysed in ice-cold RIPA buffer (containing 50 mM Tris-HCl, pH 8.0, 150 mM NaCl, 5 mM NaF, 1% NP40, 1 mM sodium orthovanadate, 0.5% sodium deoxycholate, 0.1% sodium dodecyl sulphate (SDS), protease inhibitors, and phosphatase inhibitors (DE-68305, Roche, Mannheim, Germany)) and incubated at 4° C. for 60 min. After centrifugation of the cells at 12,000×g at 4° C. for 30 min, the supernatant was kept and quantified by Bradford protein assay (Bio-Rad, Hercules, Calif., USA). […] The signals were monitored using Western Lightning™ Plus-ECL (Perkin Elmer Life Sciences) and the PVDF membrane was exposed to Luminescent image analyzer (LAS)-3000 (Fujifilm, Minato, Tokyo, Japan). The acquired data were analyzed and compared the difference among various treatments. […]

[4] = test system: DIO ICR mice; test: Short term glucose tolerance (OGTT) in diet-induced obesity (DIO) ICR mice; assay type: in vivo, mouse; details: antroquinonol 25 mg/kg Bwt versus Sitagliptin 20 mg/kg Bwt, 15 min before D-glucose 2 g/kg, FIG. 8
Method: as §1, §2
(§5) 8 weeks old ICR male mice were induced with high fat die and 60% fructose water for 10 weeks. […] Blood glucose was immediately determined by the glucose oxidase method using glucose analyzer (Accu-Chek, Roche), when blood sugar was sustained at higher level than 200 mg/dl after 120 min oral glucose that defined high blood sugar. […]

[5] = test system: GLUT4 translocation; test: Measurement of GLUT4 translocation in differentiated C2C12 cells; assay type: cell-based, mouse; details: FIG. 5(A)
Method: Mouse muscle myoblast cells (C2C12) were obtained from the Food Industry Research and Development Institute (FIRDI, Hsinchu, Taiwan). The cells were grown and maintained in Dulbecco's Modified Eagle's Medium containing high level of glucose (DMEM-high glucose; GIBCO, Carlsbad, Calif., USA) supplemented with 10% fetal bovine serum (FBS, GIBCO) and 1% penicillin streptomycin (GIBCO) in a cell culture incubator with 5% CO2 at 37° C. Prior to experiment, the cells were seeded and cultured at a density of 8×10^3 cells per well in 96-well plates or 2.5×10^5 cells per well in 6-well plates. After the myoblasts achieved 80% confluence, the cells were incubated for 4 days in DMEM—high glucose supplemented with 1% FBS and 1% horse serum induced differentiation to myotubes.
C2C12 was fully differentiated with DMEM supplemented with 1% FBS and 1% horse serum for 4 days. The cells were washed twice with PBS containing 0.1% BSA and subsequently incubated in PBS with or without the treatment with 185 μM insulin (Ins), 16 mM metformin (Met), or 50, 100, and 150 μM of antroquinonol (Ant) for 55 min (n=5 in each group) respectively, and then placed on ice and immediately fixed with 1% glutaraldehyde in PBS at RT for 10 min. […] HRP activity was determined by measuring the absorbance at 450 nm with a spectrophotometer (EnSpire 2300 Multilabel Reader, Perkin Elmer, Waltham, Mass., USA). […]

[6] = target: T1, Dipeptidyl peptidase-4 (DPP4) (Homo sapiens, UniProt P27487); test: DPP4 enzyme activity (DPPIV/CD26 Assay Kit); assay type: biochemical; details: 100 μM, 30 min at RT; FIG. 2
T1 construct: purchased Enzo BML-AK498
T1 sequence (P27487 whole entry): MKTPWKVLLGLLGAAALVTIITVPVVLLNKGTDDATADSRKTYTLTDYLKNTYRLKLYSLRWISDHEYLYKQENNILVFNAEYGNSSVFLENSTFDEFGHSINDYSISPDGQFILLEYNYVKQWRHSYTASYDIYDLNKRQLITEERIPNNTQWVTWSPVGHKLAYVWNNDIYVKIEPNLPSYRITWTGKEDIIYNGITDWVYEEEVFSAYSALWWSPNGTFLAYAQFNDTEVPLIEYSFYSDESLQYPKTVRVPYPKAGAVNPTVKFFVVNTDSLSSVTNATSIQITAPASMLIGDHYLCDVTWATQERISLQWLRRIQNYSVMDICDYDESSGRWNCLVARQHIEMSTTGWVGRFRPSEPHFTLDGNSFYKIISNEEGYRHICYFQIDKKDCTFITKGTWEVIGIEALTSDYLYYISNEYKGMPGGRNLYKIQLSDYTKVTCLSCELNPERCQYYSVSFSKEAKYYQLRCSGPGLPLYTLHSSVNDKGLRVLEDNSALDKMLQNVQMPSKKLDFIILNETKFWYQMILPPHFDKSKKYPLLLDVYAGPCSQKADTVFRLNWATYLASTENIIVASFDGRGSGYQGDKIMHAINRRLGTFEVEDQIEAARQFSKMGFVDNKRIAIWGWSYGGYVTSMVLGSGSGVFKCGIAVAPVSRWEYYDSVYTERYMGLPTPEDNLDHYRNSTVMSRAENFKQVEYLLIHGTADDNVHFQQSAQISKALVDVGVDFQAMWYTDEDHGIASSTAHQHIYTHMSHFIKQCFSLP
Method: Dipeptidyl peptidase-4 (DPP4), also known as adenosine deaminase complexing protein 2 or CD26 (cluster of differentiation 26), is […]. DPP4 enzyme activity was measured by a DPPIV/CD26 Assay Kit (BML-AK498, Enzo, N.Y., USA). This assay is based on the cleavage of the p-nitroaniline (pNA) from the chromogenic substrate (H-Gly-Pro-pNA) to increase the absorbance at 405 nm. Firstly 50 μL of assay buffer (50 mM Glycine, pH 8.7, 1 mM EDTA) per will was added into the 96-well clear microplate, and then 20 μL of DPP4 enzyme (13 μU/μL), 20 μL of tested inhibitors, 100 μM of antroquinonol or known clinical drug sitagliptin, and finally 10 μL of pNA substrate were added to each well sequentially. After an incubation of reaction mixture at room temperature (RT) for 30 min, the absorbance of each sample was read at 405 nm by the ELISA plate reader (Thermo Labsystems, Opsys MR, Thermo fisher scientific).

[7] = test system: PKA protein level; test: Glucagon like peptide-1 induced PKA protein level, Western blot in AR42J cells; assay type: cell-based, rat; details: 5 μM and 20 μM, with 1 nM GLP-1 or 1 nM exendin-4, 48 h, FIG. 4
Method: Rat pancreas tumor cells (AR42J) were obtained from the Food Industry Research and Development Institute (FIRDI, Hsinchu, Taiwan). The cells were grown and maintained in DMEM (GIBCO) supplemented with 20% fetal bovine serum (FBS, GIBCO) and 1% penicillin streptomycin (GIBCO) and 2 mM of L-glutamin in a cell culture incubator with 5% CO2 at 37° C. Prior to the experiments, the cells were seeded and cultured for 16-24 h.
as §4

[8] = test system: DIO ICR mice; test: Long term glucose tolerance (OGTT) in diet-induced obesity (DIO) ICR mice; assay type: in vivo, mouse; details: antroquinonol 25 mg/kg Bwt versus Sitagliptin 10 mg/kg Bwt, q.o.d. for 4 weeks, FIG. 9
Method: as §1, §2, §5

COC1=C(OC)[C@@H](O)[C@@H](C/C=C(\C)CC/C=C(\C)CCC=C(C)C)[C@H](C)C1=O [(−)-antroquinonol] was tested. Which “hypoglycemic efficacy, OGTT blood glucose AUC” value [1] did it give?
The value was “had the hypoglycemic efficacy”.

For CN(C)C(=N)N=C(N)N [metformin, reference compound], which “AMPK Thr172 phosphorylation” value [2] is on record?
Its value is “provided an effect in action to the phosphorylation of AMPK Thr172”.

And the “AKT Thr308 phosphorylation” value [3]?
The value was “not”.

With (+)-antroquinonol as the molecule, how does the “hypoglycemic efficacy, OGTT blood glucose AUC” value [1] read?
Its value is “had the hypoglycemic efficacy”.

Which “AKT Thr308 phosphorylation” value [3] does the source give for insulin here?
The value was “induced insulin signaling pathway at the phosphorylation of AKT Thr308”.

What does the source list for COC1=C(OC)[C@H](O)[C@H](C/C=C(\C)CC/C=C(\C)CCC=C(C)C)[C@@H](C)C1=O [antroquinonol]?
glucose tolerance, OGTT blood glucose AUC, short term [4]: effects similar to Sitagliptin; AMPK Thr172 phosphorylation [2]: significantly better efficacy on the phosphorylation of AMPK Thr172 than insulin and metformin; GLUT4 translocation, comparison with metformin ([5]; C2C12, 100 μM of antroquinonol): equivalent to 16 mM metformin; GLUT4 translocation ([5]; C2C12, antroquinonol 50, 100, 150 μM versus insulin 185 μM and metformin 16 mM, 55 min): good effect on GLUT4 translocation similar to insulin (Ins), and which is even better than metformin (Met); also recorded: enhanced GLUT4 translocation with dose-dependent manner; inhibitory rate of DPP4 activity (compared to the control without treatment) [6]: up to 50%; PKA protein level [7]: PKA protein level was expressed; AKT Thr308 phosphorylation [3]: not; glucose tolerance, OGTT blood glucose AUC, long term [8]: effects similar to Sitagliptin; hypoglycemic efficacy, OGTT blood glucose AUC (ratio to the control) ([1]; S961-treated mice, antroquinonol 50 mg/kg Bwt p.o., metformin 100 mg/kg as positive control, FIG. 7(A)): had the hypoglycemic efficacy in the condition of insulin resistance through the oral glucose tolerance test (OGTT), similar to Metformin
